Measurements reported in patent US4002753A, “6-Substituted 3-carbethoxyhydrazinopyridazines” (I.S.F. S.p.A., priority 1973, dated 1977).

What was measured:
Format in all cases: in vivo
[1] = test system: Renal hypertensive awaken rat; assay: Anti-hypertensive activity in the renal hypertensive awaken rat (Grollman method), arterial pressure by bloodless method; conditions: oral; for ED20: read-out: ED20 orally
Protocol: Some illustrative results obtained in the renal hypertensive awaken rat according to the method of A. Grollman (Proc. Soc. Exptl. Biol. Med., 57, 102, 1944) are given in Table 1. The products were administered orally to groups of 4 rats for each dosage level. The arterial pressure was measured by bloodless method immediately before and at the 1st, 3rd, 5th, 7th, 12th, 24th, 36th, 48th and 60th hour after administration.
x ED20 = dose producing a 20% fall in pressure compared to the basal

[2] = test system: Mouse; assay: Acute toxicity in the mouse, intraperitoneal (approximate LD50); conditions: 6 dosage levels
Protocol: (§1) The evaluation of the acute toxicity was carried out in the mouse administering the products by the intraperitoneal route at 6 different dosage levels. The approximate LD50 was determined thereafter.

[3] = as above; conditions: in vivo, ip, 6 dosage levels, read-out: Mouse LD50 i.p.
Protocol: as §1

[4] = dose producing a 20% fall in pressure compared to the basal value

SMILES: CCOC(=O)NNc1nncc2ccccc12 [Binazin, reference compound]
- Time in hours of half effect appearance [1]: 20 h
- Time in hours of maximum effect appearance [1]: 3 h
- ED20 orally [1, 4]: 7 mg/kg
- Mouse LD50 i.p. [2]: 500 mg/kg

SMILES: CCOC(=O)NNc1ccc(N(C)CC(C)O)nn1 (centres unmarked) [Example 3, 3-(2-Carbethoxyhydrazino)-6-[N-(2-hydroxypropyl)methylamino]-pyridazine]
- Time in hours of half effect appearance [1]: 36 h
- Time in hours of maximum effect appearance [1]: 5 h
- ED20 [1, 4]: 1 mg/kg
- LD50 [3]: 700 mg/kg

SMILES: C=CCN(CC=C)c1ccc(NNC(=O)OCC)nn1 [Example 5, 3-(2-Carbethoxyhydrazino)-6-diallylaminopyridazine]
- Time in hours of half effect appearance [1]: 48 h
- Time in hours of maximum effect appearance [1]: 5 h
- ED20 [1, 4]: 1 mg/kg
- LD50 [3]: 300 mg/kg

SMILES: CCOC(=O)NNc1ccc(N(CC)CC(C)O)nn1 (centres unmarked) [Example 6, 3-(2-Carbethoxyhydrazino)-6-[N-(2-hydroxypropyl)ethylamino]-pyridazine]
- Time in hours of half effect appearance [1]: 36 h
- Time in hours of maximum effect appearance [1]: 5 h
- ED20 [1, 4]: 1 mg/kg
- LD50 [3]: 700 mg/kg

SMILES: NNc1nncc2ccccc12 [Hydralazine, reference compound]
- Time in hours of half effect appearance [1]: 5 h
- Time in hours of maximum effect appearance [1]: 1 h
- ED20 [1, 4]: 3 mg/kg
- LD50 [3]: 100 mg/kg
